Source: PubChem BioAssay (NCI)
In brackets after ≈: the same amount, converted by molar mass.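 Assay format: 96-well plates, 48-hour exposure. GI50 = concentration required for 50% inhibition of growth. TGI marks complete inhibition of growth.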

How the values were obtained:
Assay in all cases: NCI-60 cell line screen, 48 h
A498 renal = test system: A498 renal
COLO 205 colon = test system: COLO 205 colon
HL-60(TB) leukemia = test system: HL-60(TB) leukemia
HT29 colon = test system: HT29 colon
KM12 colon = test system: KM12 colon
MALME-3M melanoma = test system: MALME-3M melanoma
NCI-H226 lung = test system: NCI-H226 lung
NCI-H23 lung = test system: NCI-H23 lung
SF-295 CNS = test system: SF-295 CNS
SK-MEL-2 melanoma = test system: SK-MEL-2 melanoma
SNB-75 CNS = test system: SNB-75 CNS
U251 CNS = test system: U251 CNS
UO-31 renal = test system: UO-31 renal

| SMILES | TGI (A498 renal) | TGI (COLO 205 colon) | TGI (HL-60(TB) leukemia) | TGI (HT29 colon) | TGI (KM12 colon) | TGI (MALME-3M melanoma) | TGI (NCI-H226 lung) | TGI (NCI-H23 lung) | TGI (SF-295 CNS) | TGI (SK-MEL-2 melanoma) | TGI (SNB-75 CNS) | TGI (U251 CNS) | TGI (UO-31 renal) | GI50 (SK-MEL-2 melanoma) | GI50 (KM12 colon) | GI50 (MALME-3M melanoma) | GI50 (NCI-H23 lung) | GI50 (SF-295 CNS) | GI50 (UO-31 renal) |
| --- | --- | --- | --- | --- | --- | --- | --- | --- | --- | --- | --- | --- | --- | --- | --- | --- | --- | --- | --- |
| O=C(O)CCC(NC(=O)c1ccc(Nc2cnc3cc(C(F)(F)F)ccc3n2)cc1)C(=O)O (centres undefined) | > 100 µM | > 100 µM | > 100 µM | > 100 µM | > 100 µM | > 100 µM | > 100 µM | > 100 µM | > 100 µM | > 100 µM | > 100 µM | > 100 µM | > 100 µM | – | – | – | – | – | – |
| O=Cc1cn(CCCCCCCCn2cc(C=O)c3ccccc32)c2ccccc12 | 3.23 µM | > 10 µM | > 10 µM | > 10 µM | > 10 µM | > 10 µM | > 10 µM | > 10 µM | > 10 µM | > 10 µM | > 10 µM | > 10 µM | > 10 µM | – | – | – | – | – | – |
| ICC1CCCO1 (centres undefined) | > 100 µM | > 100 µM | > 100 µM | > 100 µM | > 100 µM | > 100 µM | > 100 µM | > 100 µM | > 100 µM | > 100 µM | > 100 µM | > 100 µM | – | – | – | – | – | – | – |
| CCN(CC)CCNc1ccc2ncn3c4ccc(OC)cc4c(=O)c1c23 | 21.5 µM | 15.5 µM | 18.7 µM | 8.14 µM | 7.68 µM | 25.1 µM | 13.7 µM | 18.1 µM | 11.6 µM | 25.4 µM | 20.8 µM | 5.31 µM | 11.8 µM | – | – | – | – | – | – |
| O=C(NN1C(=O)CS(=O)(=O)C1c1ccc(Cl)c(Cl)c1)c1ccncc1 (centres undefined) | > 100 µM | > 100 µM | > 90.4 µM | > 100 µM | > 100 µM | > 100 µM | > 100 µM | > 100 µM | > 100 µM | > 100 µM | > 100 µM | > 100 µM | > 100 µM | – | – | – | – | – | – |
| CC(=O)[O-].CC(=O)[O-].O=C(N/N=C/c1cc(Cl)cc(Cl)c1[OH2+])c1ccncc1.[Mn+2] | 41 µM | 10.9 µM | 1.12 µM | 31.6 µM | 23.8 µM | 18 µM | 12.1 µM | 21.9 µM | 7.48 µM | 8.38 µM | 30.2 µM | 24.3 µM | 18.6 µM | 3.85 µM | – | – | – | – | – |
| Cc1cc(O)c2c(c1)C(=O)c1c(c(O)cc(O)c1-c1c(O)cc(O)c3c1C(=O)c1cc(C)cc(O)c1C3=O)C2=O | 40.4 µM | > 71.7 µM | 18.6 µM | 45 µM | 64.2 µM | 65.2 µM | 50 µM | 50.8 µM | 38.3 µM | 40.7 µM | 66.1 µM | 46 µM | 15.8 µM | – | – | – | – | – | – |
| Cc1nc2nc(C)n(CCN3CCOCC3)c(=O)c2c(-c2cccc([N+](=O)[O-])c2)c1C(=O)CCCCCCCCCCN1CCC(c2ccccc2)(c2ccccc2)CC1 | – | – | – | – | 4.46 µg/mL | 4.22 µg/mL | – | 3.71 µg/mL | 2.65 µg/mL | 4.76 µg/mL | – | – | 3.52 µg/mL | 2.55 µg/mL | 2.43 µg/mL (≈ 2.99 µM) | 2.24 µg/mL (≈ 2.75 µM) | 1.81 µg/mL (≈ 2.22 µM) | 0.78 µg/mL (≈ 0.96 µM) | 1.71 µg/mL (≈ 2.1 µM) |
| CC1(c2ccccc2)O[C@@H]2C[C@H]3[C@@H]4CCC5=CC(=O)C=C[C@]5(C)[C@@]4(F)[C@@H](O)C[C@]3(C)[C@]2(C(=O)CO)O1 (some centres undefined) | 33.9 µM | 27.8 µM | 39.4 µM | 32.4 µM | 30 µM | 27.5 µM | 31 µM | 36.3 µM | 36.2 µM | 28.3 µM | 44.8 µM | 33.3 µM | 33 µM | – | – | – | – | – | – |
| CCOP(=O)(C/C=C/Cn1ncc(=O)[nH]c1=O)OCC | > 100 µM | > 100 µM | > 100 µM | > 100 µM | > 100 µM | > 100 µM | > 100 µM | – | – | > 100 µM | > 100 µM | > 100 µM | > 100 µM | – | – | – | – | – | – |
| C=C1CC(OC)(C(OC)C(=O)N[C@H]2OCO[C@H]3C2O[C@H](C[C@@H](COC)OC)C(C)(C)C3OC)O[C@H](C)[C@@H]1C (some centres undefined) | 2.58 µM | 4.72 µM | 1.33 µM | 5.49 µM | > 47 µM | – | 7.73 µM | 6.68 µM | 3.28 µM | 14.9 µM | 9.99 µM | 4.13 µM | 5.71 µM | – | – | – | – | – | – |
| Cc1cc(=O)oc2c1cc1ccc3cccc4ccc2c1c34 | > 100 µM | > 100 µM | > 100 µM | > 100 µM | – | > 100 µM | > 100 µM | > 100 µM | > 100 µM | > 100 µM | 98.4 µM | > 100 µM | > 100 µM | – | – | – | – | – | – |
| CN1CCC2(c3ccccc3)CC(=O)/C(=C/c3ccc(Cl)c(Cl)c3)C1C2 (centres undefined) | 12.8 µM | 4.2 µM | 3.46 µM | 4.12 µM | 4.14 µM | 24.4 µM | 4.69 µM | 8.45 µM | 6.52 µM | 9.87 µM | 11.2 µM | 3.47 µM | 3.82 µM | – | – | – | – | – | – |
